In paper PMC5544254 (Molecular bioSystems, 2017):

Test system: SMNDC1_12PC RNA (5′-UTR SMNDC1 mRNA G quadruplex)
Assay: Steady-state fluorescence spectroscopy titration, PC reporter quenching
Type: binding
Details: BSA titrated into SMNDC1_12PC RNA, control experiment, Supplemental Figure 1D

Substance: bovine serum albumin [BSA]
- change of steady state fluorescence of PC reporter (non-specific control): did not change
